US20210317092A1 (BAYER PHARMA AKTIENGESELLSCHAFT, priority 2016, published 2021)
pIC50: −log10 of the molar value. Read-outs that look alike come from different tables or passages of the source.

Tests used:
[1] = target: T1, human Bradykinin B1 receptor (Homo sapiens, UniProt P46663); test: Calcium flux Assay (FLIPR) with recombinant CHO-K1 cells expressing human Bradykinin B1 receptor, in presence (hB1 IC50) or absence (hB1 free IC50) of 0.1% BSA; type: cell-based
T1 construct: host or cells: CHO-K1
T1 sequence (P46663 1-353): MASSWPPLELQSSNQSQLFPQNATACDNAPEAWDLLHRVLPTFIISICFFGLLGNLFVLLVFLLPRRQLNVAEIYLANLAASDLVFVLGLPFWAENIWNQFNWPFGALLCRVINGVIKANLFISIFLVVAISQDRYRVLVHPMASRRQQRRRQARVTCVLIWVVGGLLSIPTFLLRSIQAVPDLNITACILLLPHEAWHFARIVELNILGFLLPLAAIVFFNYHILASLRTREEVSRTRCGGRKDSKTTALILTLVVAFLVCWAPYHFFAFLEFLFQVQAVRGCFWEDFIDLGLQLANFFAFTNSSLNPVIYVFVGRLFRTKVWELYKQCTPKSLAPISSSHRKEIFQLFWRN

IL-6 secretion = test: Inhibitory activity on Bradykinin B1 agonist-induced secretion of IL-6 in human IMR-90 cells; type: cell-based; conditions: 30 min compound, stimulated with 0.1 μM Lys-[Des-Arg9]Bradykinin and 0.1 μM Sar-[D-Phe8]-des-Arg9-Bradykinin for 5 hours
Source text: Inhibitory activity on Bradykinin B1 agonist-induced secretion of IL-6 and IL-8 in human IMR-90 cells
The effect of the compound examples on secretion of the cytokine IL-6 and IL-8 has been investigated in the human foetal lung fibroblast IMR-90 cell line. Here the induction of the cytokine secretion was induced by the Bradykinin B1 agonists Lys-[Des-Arg9]Bradykinin (CAS 71800-36-7, Tocris Bioscience) and Sar-[D-Phe8]-des-Arg9-Bradykinin (CAS 126959-88-4, Tocris Bioscience) leading to the activation of the Bradykinin B1-driven signalling pathway. This effect is indicative for a strong anti-inflammatory mode of action in kinin driven inflammation.
IMR-90 cells were cultured in Eagle's Minimum Essential Medium (EMEM) containing 2 mM L-glutamine, 1 g/L glucose, 1.5 g/L NaHCO3, 1 mM sodium pyruvate and non-essential amino acids (ATCC, 30-2003™) supplemented with 10% FBS (Biochrom, S0615) and 50 U/mL Penicillin, 50 μg/mL Streptomycin (PAA, P11-010). The assay was performed in EMEM and a cell density of […] IMR-90 cells/96-well. The compound examples have been serial diluted in 100% DMSO and evaluated at 8 different concentrations within the range of 3 nM and 10 μM and a final DMSO concentration of 0.4%. The IMR-90 cells have been incubated with the respective concentration of the compound for 30 min. The enhanced secretion of IL-6 and IL-8 was induced by the stimulation of these cells with 0.1 μM Lys-[Des-Arg9]Bradykinin (Tocris, catalogue no. 3225) and 0.1 μM Sar-[D-Phe8]-des-Arg9-Bradykinin (Tocris, catalogue no. 3230) for 5 hours at 37° C. and 5% C02. Further, cells have been treated with Lys-[Des-Arg9]Bradykinin and Sar-[D-Phe8]-des-Arg9-Bradykinin as neutral control and with 0.1% DMSO as inhibitor control. The amount of IL-6 and IL-8 in the supernatant was determined using the Human Prolnflammatory Panel II (4-Plex) (MSD, K15025B) according to manufacturer's instruction. Briefly, supernatants were added onto assay plates and incubated at room temperature for 1-2 h with vigorous shaking at 600 rpm. Detection antibodies were then added onto the supernatants and incubated at room temperature for an additional 1-2 h with vigorous shaking at 600 rpm. Plates were washed three times with phosphate-buffered saline (PBS; 137 mM NaCl, 2.7 mM KCl, 6.5 mM Na2HPO4, 1.7 mM KH2P04) containing 0.05% Tween-20 (Bio-Rad, 161-0781) and electrochemiluminescence detected using the MSD Sector Imager 6000 plate reader. The cell viability was measured using the CellTiter-Glo Luminescent Assay (Promega, G7571) following the manufacturers protocol. Briefly, the CellTiter-Glo Reagent was diluted with PBS (1:1) and added directly to cells. After incubation and shaking for 10 minutes luminescent signal was measured which is proportional to the amount of ATP present.
The effect of the compound on the amount of secreted cytokine has been calculated as 100/(measured cytokine concentration of neutral control-measured cytokine concentration of inhibitor control)*(measured cytokine concentration of compound dose-measured cytokine concentration of inhibitor control). IC50 values are determined using 4-parameter-fit.
The compound examples were tested in triplicates per plate and the inhibitory activity was determined as the relation between neutral and inhibitor control in percent. IC50 values were calculated using the 4-parameter logistic model.

[2] = in absence of 0.1% BSA, read-out: hB1 free IC50
[3] = in presence of 0.1% BSA, read-out: hB1 IC50

Structure (SMILES) | pIC50 [1, 2] | pIC50 [1, 3] | pIC50 (IL-6 secretion)
COc1ccc(-c2ccc(NC(=O)C3(c4cccc(Cl)c4)CC3)cc2-c2nnn[nH]2)cc1OC [Example 1, 1-(3-Chlorophenyl)-N-[3′,4′-dimethoxy-2-(1H-tetrazol-5-yl)biphenyl-4-yl]cyclopropanecarboxamide] | 8.47 | 7.65 | 6.65
CCOc1ccc(-c2ccc(NC(=O)C3(c4cccc(Cl)c4)CC3)cc2-c2nnn[nH]2)cn1 [Example 253, 1-(3-Chlorophenyl)-N-[4-(6-ethoxypyridin-3-yl)-3-(1H-tetrazol-5-yl)phenyl]cyclopropanecarboxamide] | 7.79 | 7.47 | 7.24
